In ChEMBL document CHEMBL6134828, “Discovery, synthesis, and biological mechanism evaluation of novel quinoline derivatives as potent NLRP3 inhibitors” (Eur J Med Chem, 2025):
Values belong to the compound of their own block, whether it stands above or below them. Activity calls are given as the source filed them. No cut-off for these calls is given here.

Tests used:
[1] = molecular target: NACHT, LRR and PYD domains-containing protein 3 (Mus musculus, UniProt Q8R4B8); experiment: Inhibition of NLRP3 in mouse J774.A1 cells assessed as reduction IL-1beta release by ELISA; assay type: cell-based
[2] = test system: J774.A1; experiment: Cytotoxicity against mouse J774.A1 cells at 0.4 to 6.4 uM incubated for 24 hrs by CCK-8 assay; assay type: toxicity, cell-based; settings: j774.a1, 24 h, dose 0.4-6.4 µM
[3] = test system: HEK-293T; experiment: Cytotoxicity against HEK293T cells at 0.4 to 6.4 uM incubated for 24 hrs by CCK-8 assay; assay type: toxicity, cell-based; settings: human, dose 0.4-6.4 µM
[4] = test system: J774.A1; experiment: Effect on TNF-alpha secretion in LPS-induced mouse J774.A1 cells at 0.2 to 3.2 uM pre-incubated with compound for 2 hrs followed by LPS-induction and measured after 5 hrs by ELISA; assay type: functional, cell-based; settings: dose 0.2-3.2 µM, time 7.0 hrs
[5] = test system: J774.A1; experiment: Inhibition of NFkappaB signaling pathway in LPS-induced mouse J774.A1 cells assessed as reduction in IkappaBalpha phosphorylation at 3.2 uM pre-incubated with compound for 2 hrs followed by LPS-induction and measured after 5 hrs by Western blot analysis; assay type: cell-based; settings: time 7.0 hrs
[6] = test system: J774.A1; experiment: Effect on p65 level in LPS-induced mouse J774.A1 cells at 0.2 to 3.2 uM pre-incubated with compound for 2 hrs followed by LPS-induction and measured after 5 hrs by Western blot analysis; assay type: functional, cell-based; settings: dose 0.2-3.2 µM, time 7.0 hrs
[7] = test system: J774.A1; experiment: Effect on phosphorylated p65 level in LPS-induced mouse J774.A1 cells at 0.2 to 3.2 uM pre-incubated with compound for 2 hrs followed by LPS-induction and measured after 5 hrs by Western blot analysis; assay type: functional, cell-based; settings: dose 0.2-3.2 µM, time 7.0 hrs
[8] = molecular target: NACHT, LRR and PYD domains-containing protein 3 (Mus musculus) (UniProt Q8R4B8); experiment: Inhibition of NLRP3 inflammasome activation in LPS/nigericin-induced mouse J774.A1 cells assessed as reduction in IL-1beta release by ELISA; assay type: cell-based; settings: dose 0.125-4 µM
[9] = molecular target: NACHT, LRR and PYD domains-containing protein 3 (Mus musculus) (UniProt Q8R4B8); experiment: Inhibition of NLRP3 inflammasome activation in LPS/nigericin-induced mouse BMDM cells assessed as reduction in IL-1beta release by ELISA; assay type: cell-based; settings: dose 0.125-4 µM
[10] = molecular target: NACHT, LRR and PYD domains-containing protein 3 (Mus musculus) (UniProt Q8R4B8); experiment: Inhibition of NLRP3 inflammasome activation in LPS/nigericin-induced mouse J774.A1 cells assessed as inhibition of caspase-1 p20 subunit formation at 0.2 to 3.2 uM by Western blot analysis; assay type: cell-based; settings: dose 0.2-3.2 µM
[11] = molecular target: NACHT, LRR and PYD domains-containing protein 3 (Mus musculus) (UniProt Q8R4B8); experiment: Inhibition of NLRP3 inflammasome activation in LPS/nigericin-induced mouse J774.A1 cells assessed as inhibition of GSDMD cleavage at 0.2 to 3.2 uM by Western blot analysis; assay type: cell-based; settings: dose 0.2-3.2 µM
[12] = molecular target: NACHT, LRR and PYD domains-containing protein 3 (Mus musculus) (UniProt Q8R4B8); experiment: Inhibition of NLRP3 inflammasome activation in LPS/nigericin-induced mouse J774.A1 cells assessed as inhibition of mature IL-1beta release at 0.2 to 3.2 uM by Western blot analysis; assay type: cell-based; settings: dose 0.2-3.2 µM
[13] = molecular target: NACHT, LRR and PYD domains-containing protein 3 (Mus musculus) (UniProt Q8R4B8); experiment: Inhibition of NLRP3 inflammasome activation in LPS/nigericin-induced mouse J774.A1 cells assessed as reduction in LDH level […]; assay type: cell-based; settings: dose 0.2-3.2 µM
[14] = molecular target: NLRP3-NEK7 (Mus musculus) (UniProt Q8R4B8+Q9ES74); experiment: Inhibition of NLRP3/NEK7 protein-protein interaction in LPS/nigericin-induced mouse J774.A1 cells incubated for 6 hrs by coimmunoprecipitation analysis; assay type: cell-based
[15] = molecular target: NACHT, LRR and PYD domains-containing protein 3 (Mus musculus) (UniProt Q8R4B8); experiment: Inhibition of NLRP3 inflammasome activation in LPS/nigericin-primed mouse BMDM cells assessed as inhibition of ASC speck formation incubated for 1 hr by DAPI staining based immunofluorescence analysis; assay type: cell-based
[16] = molecular target: NACHT, LRR and PYD domains-containing protein 3 (Mus musculus) (UniProt Q8R4B8); experiment: Inhibition of LPS/nigericin-induced NLRP3 oligomerization in mouse J774.A1 cells at 3.2 uM by SDS-PAGE analysis; assay type: cell-based
[17] = molecular target: Nlrp3/Pycard (Mus musculus) (UniProt Q8R4B8+Q9EPB4); experiment: Inhibition of NLRP3/ASC protein-protein interaction in LPS/nigericin-induced mouse J774.A1 cells at 3 uM by coimmunoprecipitation analysis; assay type: cell-based
[18] = molecular target: T1, Apoptosis-associated speck-like protein containing a CARD (Mus musculus) (UniProt Q9EPB4); experiment: Inhibition of LPS/nigericin-induced ASC oligomerization in mouse J774.A1 cells at 0.8 to 3.2 uM by immunoblot analysis; assay type: cell-based; settings: dose 0.8-3.2 µM
T1 sequence (whole entry): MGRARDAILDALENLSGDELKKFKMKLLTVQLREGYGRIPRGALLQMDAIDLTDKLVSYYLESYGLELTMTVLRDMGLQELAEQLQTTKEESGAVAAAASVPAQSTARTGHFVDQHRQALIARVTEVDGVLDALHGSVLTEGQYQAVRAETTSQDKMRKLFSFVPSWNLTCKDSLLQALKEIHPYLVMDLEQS

[19] = test system: Mus musculus; experiment: Antiinflammatory activity against DSS-induced ulcerative colitis male C57BL/6 mouse model assessed as increase in colon length at 7.5 to 30 mg/kg administered via oral gavage for 4 days; assay type: functional, organism-based; settings: dose 7.5-30 mg/kg, time 4.0 day
[20] = test system: Mus musculus; experiment: Antiinflammatory activity against DSS-induced ulcerative colitis male C57BL/6 mouse model assessed as reduction in fecal blood index at 7.5 to 30 mg/kg administered via oral gavage for 4 days; assay type: functional, organism-based; settings: dose 7.5-30 mg/kg, time 4.0 day
[21] = test system: Mus musculus; experiment: Effect on DSS-induced body weight loss in male C57BL/6 mouse model of ulcerative colitis at 7.5 to 30 mg/kg administered via oral gavage for 4 days; assay type: functional, organism-based; settings: dose 7.5-30 mg/kg, time 4.0 day
[22] = test system: Mus musculus; experiment: Antiinflammatory activity against DSS-induced ulcerative colitis male C57BL/6 mouse model assessed as amelioration of mucosal ulceration in colonic tissue at 7.5 to 30 mg/kg administered via oral gavage for 4 days; assay type: functional, organism-based; settings: dose 7.5-30 mg/kg, time 4.0 day
[23] = test system: Mus musculus; experiment: Antiinflammatory activity against DSS-induced ulcerative colitis male C57BL/6 mouse model assessed as amelioration of crypt loss in colonic tissue at 7.5 to 30 mg/kg administered via oral gavage for 4 days; assay type: functional, organism-based; settings: dose 7.5-30 mg/kg, time 4.0 day
[24] = test system: Mus musculus; experiment: Antiinflammatory activity against DSS-induced ulcerative colitis male C57BL/6 mouse model assessed as amelioration of epithelial damage in colonic tissue at 7.5 to 30 mg/kg administered via oral gavage for 4 days; assay type: functional, organism-based; settings: dose 7.5-30 mg/kg, time 4.0 day
[25] = test system: Mus musculus; experiment: Antiinflammatory activity against DSS-induced ulcerative colitis male C57BL/6 mouse model assessed as reduction in IL-1beta level in colonic tissue at 7.5 to 30 mg/kg administered via oral gavage for 4 days by ELISA; assay type: functional, organism-based; settings: dose 7.5-30 mg/kg, time 4.0 day
[26] = test system: Mus musculus; experiment: Antiinflammatory activity against DSS-induced ulcerative colitis male C57BL/6 mouse model assessed as reduction in caspase-1 level in colonic tissue at 7.5 to 30 mg/kg administered via oral gavage for 4 days by Western blot analysis; assay type: functional, organism-based; settings: dose 7.5-30 mg/kg, time 4.0 day
[27] = test system: Mus musculus; experiment: Antiinflammatory activity against DSS-induced ulcerative colitis male C57BL/6 mouse model assessed as reduction in cleaved GSDMD level in colonic tissue at 7.5 to 30 mg/kg administered via oral gavage for 4 days by Western blot analysis; assay type: functional, organism-based; settings: dose 7.5-30 mg/kg, time 4.0 day
[28] = test system: Mus musculus; experiment: In vivo inhibition of NLRP3 in colonic tissue of DSS-induced ulcerative colitis male C57BL/6 mouse model at 7.5 to 30 mg/kg administered via oral gavage for 4 days by Western blot analysis; assay type: functional, organism-based; settings: dose 7.5-30 mg/kg, time 4.0 day

Sequence of NACHT, LRR and PYD domains-containing protein 3 (Mus musculus) (Q8R4B8 whole entry, the tested form may be a part): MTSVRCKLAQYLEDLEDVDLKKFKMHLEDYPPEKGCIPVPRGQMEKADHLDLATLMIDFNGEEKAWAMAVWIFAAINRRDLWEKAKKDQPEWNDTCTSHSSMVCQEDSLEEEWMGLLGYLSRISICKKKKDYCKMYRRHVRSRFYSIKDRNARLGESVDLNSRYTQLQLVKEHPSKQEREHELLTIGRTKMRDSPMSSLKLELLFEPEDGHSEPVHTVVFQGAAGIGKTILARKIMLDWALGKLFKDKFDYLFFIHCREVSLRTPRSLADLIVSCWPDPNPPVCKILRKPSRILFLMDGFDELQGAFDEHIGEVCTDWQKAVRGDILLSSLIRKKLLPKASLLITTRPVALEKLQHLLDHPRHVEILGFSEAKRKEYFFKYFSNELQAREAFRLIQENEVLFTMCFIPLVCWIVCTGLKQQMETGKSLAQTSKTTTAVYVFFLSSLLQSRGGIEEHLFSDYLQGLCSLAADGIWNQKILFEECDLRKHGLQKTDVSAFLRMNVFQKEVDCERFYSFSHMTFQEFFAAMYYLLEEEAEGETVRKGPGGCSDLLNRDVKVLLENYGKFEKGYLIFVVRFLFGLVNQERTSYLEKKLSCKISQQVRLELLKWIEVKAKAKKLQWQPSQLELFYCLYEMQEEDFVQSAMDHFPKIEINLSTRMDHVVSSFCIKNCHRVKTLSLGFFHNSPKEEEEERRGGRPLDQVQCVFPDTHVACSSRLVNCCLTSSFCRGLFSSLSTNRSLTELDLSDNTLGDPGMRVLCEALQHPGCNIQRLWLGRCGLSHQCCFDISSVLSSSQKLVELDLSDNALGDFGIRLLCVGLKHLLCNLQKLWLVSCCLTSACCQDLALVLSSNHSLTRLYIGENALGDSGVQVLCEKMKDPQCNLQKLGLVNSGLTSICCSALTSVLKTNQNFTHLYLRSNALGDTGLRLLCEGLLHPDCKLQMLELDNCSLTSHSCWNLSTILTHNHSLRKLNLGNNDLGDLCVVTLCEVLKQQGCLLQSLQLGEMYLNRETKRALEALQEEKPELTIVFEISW
Sequence of NACHT, LRR and PYD domains-containing protein 3 (Q8R4B8 whole entry, the tested form may be a part): as above
Sequence of Nlrp3/Pycard (Mus musculus) (Q8R4B8 whole entry, looked up, one chain of several): as the sequence (Q8R4B8 whole entry, the tested form may be a part) above
Sequence of NLRP3-NEK7 (Mus musculus) (Q8R4B8 whole entry, looked up, the tested form may be a part): as the sequence (Q8R4B8 whole entry, the tested form may be a part) above
Sequence of NLRP3-NEK7 (Mus musculus) (Q9ES74 whole entry, looked up, the tested form may be a part): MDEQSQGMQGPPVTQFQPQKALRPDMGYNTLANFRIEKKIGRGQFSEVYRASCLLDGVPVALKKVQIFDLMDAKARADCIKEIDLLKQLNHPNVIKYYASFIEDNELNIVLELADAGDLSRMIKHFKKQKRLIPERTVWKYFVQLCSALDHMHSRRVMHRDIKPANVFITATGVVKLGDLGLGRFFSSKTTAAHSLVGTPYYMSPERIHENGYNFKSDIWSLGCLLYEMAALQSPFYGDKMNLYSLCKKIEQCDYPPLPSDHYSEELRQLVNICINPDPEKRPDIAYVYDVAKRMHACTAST

SMILES: CC[C@H](NC(=O)c1c(C)c(-c2cccc(F)c2)nc2c([N+](=O)[O-])cccc12)c1ccccc1
IC50 [1]: 0.18 µM
Activity [2]: Non-toxic
Activity [3]: Non-toxic
Activity [4]: No effect
inhibition [5]: Active; Slight Inhibitory Effect On P-Ikappabalpha
Activity [6]: No effect
Activity [7]: No effect
inhibition [8]: Dose-dependent-effect
inhibition [9]: Dose-dependent-effect
inhibition [10]: Active
inhibition [11]: Active
inhibition [12]: Active
inhibition [13]: Dose-dependent-effect
inhibition [14]: inactive
inhibition [15]: Active
inhibition [16]: Active
inhibition [17]: Active
inhibition [18]: Active
Activity [19]: Active
Activity [20]: Active
Activity [21]: No effect
Activity [22]: Active
Activity [23]: Active
Activity [24]: Active
Activity [25]: Active
Activity [26]: Active
Activity [27]: Active
inhibition [28]: Active

SMILES: CC[C@@H](NC(=O)c1cc(-c2ccccc2)nc2ccccc12)c1ccccc1
IC50 [1]: 2.08 µM

SMILES: CC[C@H](NC(=O)c1c(C)c(-c2cccc(F)c2)nc2ccccc12)c1ccccc1
IC50 [1]: 0.59 µM
Activity [2]: Non-toxic
inhibition [14]: inactive
inhibition [15]: Active
inhibition [16]: Active
inhibition [17]: Active
inhibition [18]: Active

SMILES: CC[C@H](NC(=O)c1c(C)c(-c2cccc(F)c2)nc2ccc([N+](=O)[O-])cc12)c1ccccc1
IC50 [1]: 0.94 µM

SMILES: CC[C@H](NC(=O)c1c(C)c(-c2cccc(F)c2)nc2ccc(Cl)cc12)c1ccccc1
IC50 [1]: 0.81 µM

SMILES: CC[C@H](NC(=O)c1cc(C)nc2ccccc12)c1ccccc1
IC50 [1]: 85 µM

SMILES: CCC(C)NC(=O)c1cc(-c2ccccc2)nc2ccccc12 (configuration not stated)
IC50 [1]: 39.5 µM

SMILES: CSc1ccccc1NC(=O)c1cc(-c2ccccc2)nc2ccccc12
IC50 [1]: 3.08 µM

SMILES: O=C(N[C@H]1CCc2ccccc21)c1cc(-c2ccccc2)nc2ccccc12
IC50 [1]: 4.51 µM

SMILES: CC[C@H](NC(=O)c1c(C)c(-c2cccc(F)c2)nc2c(Cl)cccc12)c1ccccc1
IC50 [1]: 0.71 µM

SMILES: CC[C@H](NC(=O)c1c(C)c(-c2cccc(F)c2)nc2ccc(Br)cc12)c1ccccc1
IC50 [1]: 1.21 µM

SMILES: CC[C@H](NC(=O)c1cc(Cl)nc2ccccc12)c1ccccc1
IC50 [1]: 84.7 µM

More lines, in order of falling IC50 [1], values ahead:

IC50 [1]: 126 µM
SMILES: CC[C@H](NC(=O)c1ccnc2ccccc12)c1ccccc1

IC50 [1]: 87.9 µM
SMILES: CCN(CC)CCCC(C)Nc1ccnc2cc(Cl)ccc12 (configuration not stated) [CHLOROQUINE]

IC50 [1]: 77 µM
SMILES: O=C(Nc1ccccc1OCc1ccccc1)c1cc(-c2ccccc2)nc2ccccc12

IC50 [1]: 70.4 µM
SMILES: O=C(NCCc1ccccc1)c1cc(-c2ccccc2)nc2ccccc12

IC50 [1]: 5.8 µM
SMILES: O=C(NC1CC(F)(F)C1)c1cc(-c2ccccc2)nc2ccccc12

IC50 [1]: 2.07 µM
SMILES: O=C(Nc1ccccc1)c1cc(-c2ccccc2)nc2ccccc12

IC50 [1]: 1.06 µM
SMILES: CC[C@H](NC(=O)c1c(C)c(-c2cccc(F)c2)nc2c(OC)cccc12)c1ccccc1
